Values of other authors in publication PMC5517430, “2,3,7,8-Tetrachlorodibenzo-p-dioxin (TCDD)-elicited effects on bile acid homeostasis: Alterations in biosynthesis, enterohepatic circulation, and microbial metabolism” (Scientific Reports, 2017).

System: FXR
Design: method as in PMID 23395169
Settings: cited from earlier work

Structure (SMILES) | FXR antagonism
C[C@H](CCC(=O)NCCS(=O)(=O)O)[C@H]1CC[C@H]2[C@@H]3[C@H](O)[C@@H](O)[C@@H]4C[C@H](O)CC[C@]4(C)[C@H]3CC[C@]12C [T-α-MCA, tauro-α-muricholic acid] | competitive antagonists
C[C@H](CCC(=O)NCCS(=O)(=O)O)[C@H]1CC[C@H]2[C@@H]3[C@@H](O)[C@@H](O)[C@@H]4C[C@H](O)CC[C@]4(C)[C@H]3CC[C@]12C [T-β-MCA] | competitive antagonists
